Test results published in US12678438B2, “Treatment of cancer with CDK inhibitors” (THE TRUSTEES OF THE UNIVERSITY OF PENNSYLVANIA, priority 2019, dated 2026).

Experiments:
[1] = tested on: VCaP CRPC xenograft; test: VCaP CRPC mouse xenograft; assay type: in vivo
Experimental: In vivo efficacy studies were performed in accordance with protocols approved by the Institutional Animal Care and Use Committee (IACUC) at the University of Pennsylvania and in compliance with all regulatory standards. Four to five-week-old male NOD SCID gamma mice (Jackson Lab, 005557) were procured from Jackson Laboratory. In the VCaP experiment, 2×10^6 VCaP prostate cancer cells suspended in 80 μL of RPMI-1640 with 50% Matrigel (BD Biosciences) were implanted subcutaneously into the dorsal flank of the mice. The animals were castrated when the tumor volumes reached approximately 150 mm^3. […] Tumor growth was recorded using digital calipers and tumor volumes were estimated using the formula (π/6) (L×W^2), where L=length and W=width of tumor. Body weight during the study was also monitored. At the end of the treatment regimen the mice were sacrificed and were extracted for further analysis.
Xenograft tumor pieces were fixed in 4% of formaldehyde for 48 h and paraffin embedded. Paraffin embedded sections from the tumors of treated and untreated mice were deparaffinized, rehydrated and subjected to epitope retrieval stained with a phospho-MED1 antibody (1:4000/1:2000), anti-PSA antibody (1:1000), anti-Ki67 (1:500), or anti-cleaved caspase3 antibody (1:1000) followed by peroxidase-based detection and counterstaining with hematoxylin using the Leica Bond Rxm system. Photographs were taken on a Leica DMI6000B inverted light and fluorescent microscope with a 20× objective. images were assessed and quantified in ImageJ.
Whole blood of the xenograft bearing mice was collected with heparinized blood collecting tubes (Fisherbrand, 02-668-10), and cells were removed from plasma by centrifugation for 10 minutes at 2,000 g at 4° C. The plasma was used to detect PSA levels using the Human PSA ELBA Kit (Abeam, ab113327) following the manufacturer's protocol. In brief, we diluted the mice plasma ten time with Assay Diluent A, and LNCaP culturing media was used as a positive control. Serially diluted standards were used for quantification. 100 μL of each sample was loaded on the human PSA specific antibody coated 96-well plate in duplicates and the plate was incubated overnight at 4° C. to allow the PSA presented in samples to bind to the wells. The wells were then washed, and biotinylated anti-Human PSA antibody was added. After washing away unbound biotinylated antibody, HRP-conjugated streptavidin was added into the wells. The wells were again washed and developed with a TMB substrate solution followed by the addition of the stop solution and colorimetric measurement of the intensity at 450 nm. The concentrations of the PSA in the samples were calculated based on the standard curve.

[2] = tested on: MED1-AR complex; test: Immunoprecipitation of endogenous MED1-AR complex; assay type: cell-based, human; settings: VCaP and LNCaP nuclear extracts, 100 nM THZ1, 6 h
Experimental: For endogenous immunoprecipitation experiments, nuclear extracts were obtained from VCaP and LNCaP cells using NE-PER nuclear extraction kit (Thermo Scientific, 78835). Nuclear pellet was then lysed in IP buffer (20 mM Tris pH7.5, 150 mM NaCl, 1% Triton-X 100, Protease/Phosphatase Inhibitor) by sonication. Nuclear lysates (0.35-1.0 mg) were pre-cleaned by incubation with protein G Dynabeads (Life Technologies) for 1 h on a rotator at 4° C. 5 μg antibody was added to the pre-cleared lysates and incubated on a rotator at 4° C. overnight. Protein G Dynabeads were then added for 1 h. Beads were washed twice in IP buffer, containing 300 mM NaCl, and resuspended in 40 μL of 2× loading buffer and boiled at 95° C. for […] for separation of the protein and beads. Samples were then analyzed by SDS-PAGE and western blotting as described above.

[3] = residual tumors, 10 mg/kg b.i.d., four weeks

Compound: CN(C)C/C=C/C(=O)Nc1ccc(C(=O)Nc2cccc(Nc3ncc(Cl)c(-c4c[nH]c5ccccc45)n3)c2)cc1 [THZ1]
- systemic toxicity ([1]; 10 mg/kg b.i.d., four weeks): well tolerated with no treatment-related systemic toxicity observed
- tumor p-MED1 levels ([1]; 10 mg/kg b.i.d., four weeks): significant reduction in p-MED1 levels
- plasma PSA expression ([1]; 10 mg/kg b.i.d., four weeks, vs vehicle treated mice): significantly reduced
- animal weight ([1]; 10 mg/kg twice daily, 4 weeks): does not affect the animal weight
- tumor volume ([1]; castrated mice, 10 mg/kg b.i.d. intraperitoneally, four weeks, vs vehicle): dramatic tumor regression
- tumor PSA expression (IHC) [1, 3]: loss of PSA expression
- tumor apoptosis (cleaved caspase-3) [1, 3]: increased apoptosis
- tumor necrosis [1, 3]: necrosis
- tumor proliferative activity (KI-67) [1, 3]: reduced proliferative activity
- endogenous MED1-AR complex formation [2]: loss of endogenous MED1-AR complex formation
